Measurements taken from US20250027035A1, “HEAVY METAL-ANTIBIOTIC MULTIPLE RESISTANT BACTERIA AND ITS APPLICATION” (priority 2023, published 2025).

How the values were obtained:
[1] = tested on: Rossellomorea oryzaecorticis ZC255; test: Drug sensitivity test of strains (antibiotic tolerance); format: cell-based; on Results of drug sensitivity test of strains: key: R: resistance; S: sensitivity; I: betweenness
[2] = tested on: Rossellomorea oryzaecorticis ZC255; test: Metal tolerance of the strain in 2216E liquid medium containing heavy metal; format: cell-based; settings: 2216E liquid medium containing the heavy metal
Description: • Step 1: the single colonies in Embodiment 1 ‘2.1 morphological characteristics’ are selected and added to the 2216E liquid medium for 24 h to obtain the seed liquid, and then it is added to the liquid containing heavy metals or antibiotics for 48 h. • Step 2: the concentration of heavy metals/antibiotics before and after the addition of seed solution is measured by atomic absorption.
In addition, the highest tolerance concentration of the strain to Cd2+is 820 mg/L; the highest tolerance concentration of Zn2+, Ni2+, Pb2+and Cr3+is 2660 mg/L, 1210 mg/L, 1640 mg/L and 400 mg/L respectively.

Molecule | Results of drug sensitivity test of strains [1] | maximum (highest) tolerance concentration of the strain [2] [mg/L] | drug sensitivity of the strain, result in words [1]
CN[C@H](CC(C)C)C(=O)N[C@H]1C(=O)N[C@@H](CC(N)=O)C(=O)N[C@H]2C(=O)N[C@H]3C(=O)N[C@H](C(=O)N[C@H](C(=O)O)c4cc(O)cc(O)c4-c4cc3ccc4O)[C@H](O)c3ccc(c(Cl)c3)Oc3cc2cc(c3O[C@@H]2O[C@H](CO)[C@@H](O)[C@H](O)[C@H]2O[C@H]2C[C@](C)(N)[C@H](O)[C@H](C)O2)Oc2ccc(cc2Cl)[C@H]1O [Vancomycin] | S | – | –
NC[C@H]1O[C@H](O[C@H]2[C@H](O)[C@@H](O[C@H]3O[C@H](CO)[C@@H](O)[C@H](N)[C@H]3O)[C@H](N)C[C@@H]2N)[C@H](O)[C@@H](O)[C@@H]1O [Kanamycin] | R | – | –
O=C(N[C@H](CO)[C@H](O)c1ccc([N+](=O)[O-])cc1)C(Cl)Cl [Chloramphenicol] | S | – | –
[Ni+2] [Ni2+] | – | 1210 | –
CO/N=C(\C(=O)N[C@@H]1C(=O)N2C(C(=O)O)=C(COC(C)=O)CS[C@H]12)c1csc(N)n1 [Cefotaxime] | I | – | –
CO[C@H]1/C=C/O[C@@]2(C)Oc3c(C)c(O)c4c(O)c(c(/C=N/N5CCN(C)CC5)c(O)c4c3C2=O)NC(=O)/C(C)=C\C=C\[C@H](C)[C@H](O)[C@@H](C)[C@@H](O)[C@@H](C)[C@H](OC(C)=O)[C@@H]1C [Rifampicin] | I | – | –
[Pb+2] [Pb2+] | – | 1640 | –
Penicillin | S | – | –
CC1COc2c(N3CCN(C)CC3)c(F)cc3c(=O)c(C(=O)O)cn1c23 (stereo not shown) [Ofloxacin] | R | – | –
CCC[C@@H]1C[C@@H](C(=O)N[C@@H]([C@H]2O[C@H](SC)[C@H](O)[C@@H](O)[C@H]2O)[C@@H](C)O)N(C)C1 [Lincomycin] | R | – | drug resistance
CC[C@H]1OC(=O)[C@H](C)[C@@H](O[C@H]2C[C@@](C)(OC)[C@@H](O)[C@H](C)O2)[C@H](C)[C@@H](O[C@@H]2O[C@H](C)C[C@H](N(C)C)[C@H]2O)[C@](C)(OC)C[C@@H](C)C(=O)[C@H](C)[C@@H](O)[C@]1(C)O [Clarithromycin] | S | – | –
CC1(C)S[C@@H]2[C@H](NC(=O)C(C(=O)O)c3ccccc3)C(=O)N2[C@H]1C(=O)O (stereo partly shown) [Carbenicillin] | S | – | –
[Cr+3] [Cr3+] | – | 400 | –
NC[C@H]1O[C@H](O[C@H]2[C@H](O)[C@@H](O[C@H]3O[C@H](CO)[C@@H](O)[C@H](N)[C@H]3O)[C@H](N)C[C@@H]2N)[C@H](N)C[C@@H]1O [Tobramycin] | R | – | drug resistance
CN(C)[C@@H]1C(O)=C(C(N)=O)C(=O)[C@@]2(O)C(O)=C3C(=O)c4c(O)cccc4[C@@](C)(O)[C@H]3C[C@@H]12 [Tetracycline] | R | – | –
[Cd+2] [Cd2+] | – | 820 | –
CCn1cc(C(=O)O)c(=O)c2cc(F)c(N3CCNCC3)cc21 [Norfloxacin] | R | – | drug resistance
Neomycin | R | – | drug resistance
CO/N=C(\C(=O)N[C@@H]1C(=O)N2C(C(=O)O)=C(CSc3nc(=O)c(=O)[nH]n3C)CS[C@H]12)c1csc(N)n1 [Ceftriaxone] | R | – | drug resistance
Gentamicin | R | – | drug resistance
[Zn+2] [Zn2+] | – | 2660 | –
Polymyxin B | R | – | drug resistance
[H]/N=C(/N)N[C@H]1[C@H](O)[C@@H](O)[C@H](O[C@@H]2O[C@@H](C)[C@](O)(C=O)[C@H]2O[C@@H]2O[C@@H](CO)[C@H](O)[C@@H](O)[C@@H]2NC)[C@@H](N/C(N)=N\[H])[C@@H]1O [Streptomycin] | R | – | drug resistance
CC[C@H]1OC(=O)[C@H](C)[C@@H](O[C@H]2C[C@@](C)(OC)[C@@H](O)[C@H](C)O2)[C@H](C)[C@@H](O[C@@H]2O[C@H](C)C[C@H](N(C)C)[C@H]2O)[C@](C)(O)C[C@@H](C)C(=O)[C@H](C)[C@@H](O)[C@]1(C)O [Erythromycin] | R | – | drug resistance
CC1(C)S[C@@H]2[C@H](NC(=O)[C@H](N)c3ccccc3)C(=O)N2[C@H]1C(=O)O [Ampicillin] | S | – | –
